The test system of data set [1] is cytochrome c oxidase activity in C. albicans SC5314, C. albicans 4175 and C. albicans 5112. Put plainly: Cytochrome c oxidase activity in mitochondria of treated cells. It is filed as cell-based, Candida albicans. The note with it: 3 h, range over three strains. The procedure: To study the effect of test compounds on apoptotic markers protoplasts were prepared as described previously, with modifications. Briefly, mid-exponential phase cells were harvested and exposed to various concentrations of test compounds (0.5 × MIC, 1 × MIC and 2×MIC) for 3 h. The cells were then washed twice with protoplast buffer- I (1 M sorbitol, 50 mM tris base, 10 mM MgCl2 and 30 mM DTT) and incubated in the same buffer for 15 minutes at 25 °C, followed by centrifugation at 1500 rpm for 5 minutes. Supernatant was removed and cells were incubated with buffer- II (1 M sorbitol, 50 mM tris base, 10 mM MgCl2 and 1 mM DTT) supplemented with lyticase enzyme (≥1 µg/mL) used to digest the cell wall for 1 h at 25 °C. Buffer- II were removed by centrifugation and then cells were incubated with buffer- III (1 M sorbitol, 50 mM tris base and 10 mM MgCl2) for 20 minutes at room temperature. After the incubation cells were again centrifuged at 1500 rpm for 5 minutes and supernatant was discarded. Protoplasts then finally washed once with PBS and re-suspended in the same for further use. In each washing steps the volume of these protoplast buffers were 5 times to cell volume with pH 7.4.
After the cells were exposed to different concentrations of test compounds as mentioned above, mitochondria of the cells were isolated using Yeast Mitochondria Isolation Kit- MITOISO3 (Sigma – Aldrich St. Louis, MO, U.S.A.). Cytochrome c oxidase assay kit (ScienCell, Cat. No. 8278, CA, USA) was used to detect the cytochrome c oxidase activity. In all procedures, kits were used according to the manufacturer’s instructions. Briefly, prepared spheroplasts were followed by homogenization to release the mitochondria. Homogenate was centrifuged in 1X storage buffer (1 ml) at 6,500 × g for 10 minutes at 2–8 °C. […] Protein concentration was determined by using TCA Lowry method. […] Immediately change in absorbance of cytochrome c was measured at 550 nm on a kinetic program (duration 30 seconds, interval 5 seconds) by using UV-1800 SHIMADZU spectrophotometer (Shimadzu Corporation, Japan).

In a further data set the test system is horse red blood cells. The data set can be described thus: Cytotoxicity by haemolytic assay. It is filed as cell-based. The note with it: 2 × MIC, 60 minutes at 37 °C, horse RBCs. As for the experimental part:
The cytotoxicity of the test compounds was determined on horse red blood cells (NHLS, Johannesburg, South Africa) by testing the haemolytic activity of these compounds using the method described previously, with some modifications. Briefly, in a sterile 15 ml falcon tube 5 ml of horse blood was centrifuged at 2000 × rpm for 10 minutes. The supernatant was discarded, and the cell pellet was washed three times with chilled PBS solution. The final pellet was used to yield a 10% RBC suspension with chilled PBS. The 10% suspension were further diluted to 1:10 in PBS, then 100 µl of this suspension was added to different concentration of test compounds (0.5 × MIC, 1 × MIC and 2 × MIC) in 1.5 ml tubes. The tubes were then incubated for 60 minutes at 37 °C followed by centrifugation at 2000 × rpm for 10 minutes. From each tube, 200 µl of the supernatant was transferred to a flat-bottomed 96-well microtiter plate and absorbance was monitored at 450 nm spectrophotometrically with an iMark microplate reader (Bio-Rad laboratories, CA, USA). Triton X-100 (1%) and PBS were used as positive and negative controls respectively. The percentage of haemolysis was calculated by the following equation: %haemolysis=A450oftestcompoundtreatedsample−A450ofbuffertreatedsample/A450of1%TritonX−100treatedsample−A450ofbuffertreatedsample×100%

SMILES strings stand for the structures.

`C=CCc1ccc(OS(=O)(=O)c2ccc(C(=O)O)cc2)c(OC)c1` [ETC-7, 4-{[2-methoxy-4-(prop-2-en-1-yl)phenoxy]sulfonyl}benzoic acid]: the “cytochrome c oxidase enzyme activity decreased up to” value is listed as 11.33–18.07% in data set [1] (0.5 × MIC), 9.20–13.92% in data set [1] (1 × MIC) and 5.21–9.88% in data set [1] (2 × MIC). The compound further showed a haemolytic activity with horse red blood cells of 8.91%.

These data come from publication PMC6985109, “Cellular apoptosis and necrosis as therapeutic targets for novel Eugenol Tosylate Congeners against Candida albicans” (Scientific Reports, 2020).
